Results on one compound are retold here after US8691949B2, “Peptide having anti-diabetic activity and use thereof” (MG Pharma Inc., priority 2008, dated 2014).

The series in a line: in vivo. To be noted: mouse, po, 2 g/kg body weight.

Residues, ends and D or L forms follow the SMILES beside them.

Take `CC(C)C[C@H](NC(=O)[C@H](CCC(=O)O)NC(=O)[C@H](CO)NC(=O)[C@@H](N)CC(C)C)C(=O)O` [LSEL, Leu-Ser-Glu-Leu] (H-LSEL-OH): the LD50 is greater than 2000 mg/kg.

As usually defined, the LD50 is the dose at which mortality reaches 50%.
